# Reference: patent publication US7550613B2, “Compounds” (Pronova Biopharma Norge AS, priority 2005, dated 2009)
# Like-named read-outs stand apart in the source and are kept apart here.
# Assays:
# PPARα receptor = target: T1, PPARα receptor (Rattus norvegicus, UniProt P37230); details: rat liver cells (Pawar & Jump 2003); cited from earlier work
# T1 construct: host or cells: rat liver cells
# T1 sequence (P37230 1-468): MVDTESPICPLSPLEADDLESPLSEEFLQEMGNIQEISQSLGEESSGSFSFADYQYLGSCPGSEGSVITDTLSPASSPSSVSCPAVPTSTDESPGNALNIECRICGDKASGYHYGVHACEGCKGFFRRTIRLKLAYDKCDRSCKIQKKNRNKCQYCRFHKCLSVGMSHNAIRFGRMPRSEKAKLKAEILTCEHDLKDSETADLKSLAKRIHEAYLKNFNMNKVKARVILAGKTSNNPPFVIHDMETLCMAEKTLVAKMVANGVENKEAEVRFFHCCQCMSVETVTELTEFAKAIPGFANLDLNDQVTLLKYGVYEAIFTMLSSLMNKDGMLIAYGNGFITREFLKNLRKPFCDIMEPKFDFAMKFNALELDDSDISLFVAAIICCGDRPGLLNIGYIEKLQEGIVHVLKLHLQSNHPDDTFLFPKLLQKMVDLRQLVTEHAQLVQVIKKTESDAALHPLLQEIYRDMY
# [1] = Body weight and food consumption during 2 weeks of diet intervention after 8 weeks of HF diet; format: in vivo, adipose prone mice of the C57BL/6J strain; details: FIG. 10; last 2 weeks of experimental diets after 8 weeks HF diet; PRBs 1.5% of fat content, rosiglitazone 100 mg/KG diet
# Protocol: The animals (n=8 in each group) were fed high fat diet (fat constituting 60% of total calories, the same diet as used in Block 5) for 8 weeks. Thereafter they were given the PRBs in a dose of 1.5% of the fat content of the diet for another two weeks. The rosiglitazone group was given an amount of 100 mg/KG diet. The control groups continued with either only high fat diet or standard chow.
# [2] = Vaagenes 1999; cited from earlier work
# [3] = Effect of DHA derivatives in adipose prone mice during 4 months of dietary interventions (Example 5a); format: in vivo, male C57BL/6 mice; design: AUC: unit not given beside the values; details: for Insulin: plasma
# Protocol: All experiments were performed on male C57BL/6 mice, either a substrain C57BL/N (supplier: Charles River, Germany, n=160, experiments A-C, see below), or a substrain C57BL/6J (supplier: the Jackson laboratory, Bar Harbor, Me., USA, n=32, experiment D). Total numbers of animals used were higher (n=170 and 36, respectively), because of culling. In the latter case, animals were bred for several generations (<20) at the Institute of Physiology. At the beginning of the treatment, animals were 14-week-old and their body weight range was 23.6-27.1 g. One week before the study start, animals were sorted according to their body weight and assigned to subgroups (n=8) of similar mean body weight. This method allowed for culling of about 5-10% of animals showing the lowest and highest body weight, respectively. The animals eliminated from the study at this stage were sacrificed by cervical dislocation. Complete health check of mice was performed by the supplier Charles River and at the start of study serological tests were performed by ANLAB (Prague, Czech Republic). In addition, regular health checks were performed in the animal house in 3-mo-intervals using sentinel mice and serological examinations (ANLAB). In all the tests, the animals were free of specific pathogens.
# • (i) Chow diet (ssniff R/M-H from SSNIFF Spezialdieten Gmbh, Soest, Germany; see also http://ssniff.de) with protein, fat and carbohydrate forming 33, 9, and 58 energy %, respectively • (ii) High-fat diet prepared in the laboratory (cHF diet) with protein, fat and carbohydrate forming 15, 59, and 26 energy %, respectively, and well characterized fatty acid composition (with most of the lipids coming from corn oil; see Ruzickova 2004) • (iii) cHF diets in which 0.15, 0.5, and 1.5% of fat (specifically the corn oil constituent) was replaced by various PRB-compounds, namely PRB1, PRB2, PRB5, PRB7, and PRB8, or by DHA. All these compounds were in the form of ethyl esters, provided by Pronova Biocare a.s. in sealed containers. Chemical composition of the PRB-compounds was unknown to the laboratory performing the experiments (Institute of Physiology, Academy of Sciences Prague, Czech Republic).
# The study was based on 4 individual experiments. In each of the experiments, different PRB-compounds (or DHA, respectively) admixed to cHF diet in three different concentrations (0.15, 0.5, and 1.5% of the fat content) were tested. In each experiment, a subgroup of plain cHF diet-fed mice was included and served as a control. Mice were caged in groups of 4 and fed standard chow diet until 3 mo of age, when animals (n=8-13) were randomly assigned to the different test diets. After 2 mo on this new diet (at 5 mo of age), animals were fasted overnight and in the morning, intraperitoneal Glucose Tolerance Test (GTT) was performed. Animals were sacrificed after 4 months on the experimental diets, at 7 mo of age, and the end-point analysis were performed.
# PPARγ = target: T2, PPARγ (Homo sapiens, UniProt P37231); assay: Affinity testing in transfected cells (release of luciferase); format: cell-based; details: FIG. 8; 10 μM of PRBs
# T2 construct: For full length PPAR transfection studies, each well received 5 μg reporter construct; expressed in transfected cells; host or cells: COS-1 cells
# T2 sequence (P37231 1-505): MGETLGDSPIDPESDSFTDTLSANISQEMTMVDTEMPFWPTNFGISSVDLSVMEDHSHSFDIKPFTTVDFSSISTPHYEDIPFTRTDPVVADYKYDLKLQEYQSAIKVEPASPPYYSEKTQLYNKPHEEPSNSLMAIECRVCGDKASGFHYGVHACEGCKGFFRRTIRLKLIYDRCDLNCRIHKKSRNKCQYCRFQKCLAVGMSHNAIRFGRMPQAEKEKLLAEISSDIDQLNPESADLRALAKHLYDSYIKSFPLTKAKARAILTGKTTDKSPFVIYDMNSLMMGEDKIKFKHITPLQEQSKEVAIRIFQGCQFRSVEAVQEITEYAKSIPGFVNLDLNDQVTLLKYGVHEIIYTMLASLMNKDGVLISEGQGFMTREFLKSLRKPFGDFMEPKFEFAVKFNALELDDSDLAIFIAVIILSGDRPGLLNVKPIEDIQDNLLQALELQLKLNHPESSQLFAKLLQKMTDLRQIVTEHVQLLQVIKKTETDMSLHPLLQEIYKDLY
# Protocol: Release of luciferase is correlated to transcription of genes. Binding of a ligand to a nuclear receptor such as PPARγ induces transcription of the respective gene thereby releasing luciferase. This technique therefore provides a measure of ligand affinity to the receptor as well as activation of the responsible gene.
# Transient transfection of COS-1 cells was performed in 6-well plates as described by Graham and van der Eb (Graham). For full length PPAR transfection studies, each well received 5 μg reporter construct, 2.5 μg pSV-β-galactosidase as an internal control, 0.4 μg pSG5-PPARγ2. The cells were harvested after 72 h, and the luciferase activity was measured according to the protocol (Promega). The luciferase activity was normalised against β-galactosidase activity. The adipocytes were transfected at D11 of differentiation using 16 μl LipofectaminPlus reagent, 4 μl Lipofectamine (Life Technologies Inc.), 0.2 μg pSG5-PPARγ, and 100 ng pTK Renilla luciferase as control of transfection afficiency. […] The luciferase activities were measured as recommended by the manufacturer (Dual Luciferase assay, Promega). […]
# Fatty acids (BRL or DHA) and PRBs (stock solutions) were solubilized to 0.1 M final concentration in DMSO. […] Luciferase activity was measured using a luminometer (TD-20/20 luminometer; Turner Designs, Sunnycvale, Calif.) and normalized against protein content.
# PPARα = target: T3, PPARα (Homo sapiens, UniProt Q07869); details: Larsen 2005; cited from earlier work
# T3 sequence (Q07869 1-468): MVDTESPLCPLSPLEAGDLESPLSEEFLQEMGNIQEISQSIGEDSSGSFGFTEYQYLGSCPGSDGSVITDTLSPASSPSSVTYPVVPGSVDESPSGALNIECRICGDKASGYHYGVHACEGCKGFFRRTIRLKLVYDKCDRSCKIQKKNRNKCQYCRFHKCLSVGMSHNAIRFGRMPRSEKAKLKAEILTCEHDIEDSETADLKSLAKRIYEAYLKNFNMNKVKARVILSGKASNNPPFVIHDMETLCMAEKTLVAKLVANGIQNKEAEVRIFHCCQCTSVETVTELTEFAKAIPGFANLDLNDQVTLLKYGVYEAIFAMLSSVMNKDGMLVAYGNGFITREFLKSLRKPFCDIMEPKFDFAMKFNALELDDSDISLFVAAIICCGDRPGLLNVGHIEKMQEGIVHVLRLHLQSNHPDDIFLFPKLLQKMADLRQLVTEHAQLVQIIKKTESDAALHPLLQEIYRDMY
# [4] = Larsen 1998; cited from earlier work
# platelet aggregation [5] = details: in vivo (Willumsen 1998); cited from earlier work
# platelet aggregation [6] = details: in vitro (Larsen 1998); cited from earlier work
compound,measurement,setting,value
"CC/C=C\C/C=C\C/C=C\C/C=C\C/C=C\C/C=C\CCC(=O)O [DHA, (all-Z)-4,7,10,13,16,19-docosahexaenoic acid]",binding capacity to the PPARα receptor,PPARα receptor,highest binding capacity
same,change of body weight,[1],completely stopped the weight gain and even led to reduction of body weight
CC/C=C\C/C=C\C/C=C\C/C=C\C/C=C\CCCC(=O)OCC [EPA EE],plasma free fatty acid,[2],had no effect
"CC/C=C\C/C=C\C/C=C\C/C=C\C/C=C\CCCC(=O)O [EPA, (all-Z)-5,8,11,14,17-eicosapentaenoic acid]",binding capacity to the PPARα receptor,PPARα receptor,highest binding capacity
"CC/C=C\C/C=C\C/C=C\C/C=C\C/C=C\C/C=C\CC(C)C(=O)OCC (stereo not drawn) [PRB-1, α-methyl docosahexaenoic acid ethyl ester]",Body wt. gain,"[3]; 4 months, 0.15% concentration",22.9 ± 1.1 grams
same,AUCglucose,"[3]; intraperitoneal glucose tolerance test, 1.5% concentration",913 ± 68 mM × 180 min
same,Insulin,"[3]; 4 months, 0.15% concentration",3.50 ± 0.29 ng/mL
same,Insulin,"[3]; 4 months, 1.5% concentration",2.73 ± 0.33 ng/mL
"CC/C=C\C/C=C\C/C=C\C/C=C\C/C=C\C/C=C\CC(SC)C(=O)OCC (stereo not drawn) [PRB-6, α-tiomethyl docosahexaenoic acid ethyl ester]",release of luciferase from transfected cells,PPARγ,significantly higher release of luciferase
"CC/C=C\C/C=C\C/C=C\C/C=C\C/C=C\C/C=C\CC(CC)(CC)C(=O)OCC [PRB-8, α,α di-ethyl docosahexaenoic acid ethyl ester]",body weight (BW),"[3]; 2 months intervention, 1.5%, controls 29.6±0.9",28.0±0.7 grams
same,AUC,"[3]; 2 months intervention, 1.5%, controls 1074±91",1031±104
CC/C=C\C/C=C\C/C=C\C/C=C\C/C=C\CCC(CC)C(=O)O (stereo not drawn) [α-ethyl EPA],activation of the nuclear receptor PPARα,PPARα,equal strength as α-methyl EPA
CC/C=C\C/C=C\C/C=C\C/C=C\C/C=C\CCC(C)C(=O)O (stereo not drawn) [α-methyl EPA],incorporation into phospholipids and triglycerids,[4],is incorporated into phospholipids and triglycerids
same,inhibition of platelet aggregation,platelet aggregation [5],stronger inhibitor of platelet aggregation than EPA
same,inhibition of platelet aggregation,platelet aggregation [6],stronger inhibitor of platelet aggregation than EPA
CC/C=C\C/C=C\C/C=C\C/C=C\C/C=C\CC(C)CC(=O)O (stereo not drawn) [β-methyl EPA],incorporation into phospholipids and triglycerids,[4],is incorporated into phospholipids and triglycerids
